Key:
Assay in all cases: drug sensitivity score (DSS) (DSS (unitless, 0-50 scale)); higher = more sensitive (stronger viability inhibition); extreme values may be limits of the assay
Settings in all cases: 72 h; culture: 2D
[1] = system: SK-MEL-2
Summary of the method: (§1)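 Patient-derived melanoma cultures (1000–1500 cells per well) and melanoma cell lines were grown in 2D in 384-well plates holding a 527-compound oncology library. Each compound was dissolved in DMSO or water and tested at five concentrations spanning a 10,000-fold range. After 72 h at 37 °C, viability was read by CellTiter-Glo luminescence. A drug sensitivity score, a modified area-under-curve measure, was derived from dose-response curves fitted in the in-house Breeze software.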

[2] = system: SK-MEL-28
Summary of the method: as §1

[3] = system: FM-MEL-3
Summary of the method: as §1

[4] = system: Bowes
Summary of the method: as §1

[5] = system: WM852
Summary of the method: as §1

[6] = system: WM165
Summary of the method: as §1

[7] = system: FM-MEL-6
Summary of the method: as §1

[8] = system: FM-MEL-2
Summary of the method: as §1

| SMILES | drug sensitivity score [1] | drug sensitivity score [2] | drug sensitivity score [3] | drug sensitivity score [4] | drug sensitivity score [5] | drug sensitivity score [6] | drug sensitivity score [7] | drug sensitivity score [8] |
| --- | --- | --- | --- | --- | --- | --- | --- | --- |
| CNC(=O)c1cccc2cc(Oc3ccnc4cc(OCC5(N)CC5)c(OC)cc34)ccc12 [Lucitanib] | 0 | 0 | 0 | 5.4 | 2.2 | 1.6 | 1.3 | 0.3 |
| O=C(/C=C/c1cccc(S(=O)(=O)Nc2ccccc2)c1)NO [Belinostat] | 13.6 | 10.6 | 12.5 | 7.9 | 5.7 | 17.7 | 13.9 | 9.4 |
| CC[C@@H]1C(=O)N(C)c2cnc(Nc3ccc(C(=O)N[C@H]4CC[C@H](N5CCN(CC6CC6)CC5)CC4)cc3OC)nc2N1C(C)C [Volasertib] | 8.1 | 3.1 | 6.5 | 17.5 | 14.9 | 13.3 | 3.7 | 2.6 |
| C=CC(=O)Nc1cccc(Oc2nc(Nc3ccc(N4CCN(C)CC4)cc3)nc3ccsc23)c1 [Olmutinib] | 0 | 0 | 0 | 0.8 | 0 | 0 | 0 | 0 |
| CCCS(=O)(=O)Nc1ccc(F)c(C(=O)c2c[nH]c3ncc(-c4ccc(Cl)cc4)cc23)c1F [Vemurafenib] | 0 | 13.5 | 0 | 2.4 | 0 | 10.2 | 0 | 0 |
| Cc1sc2c(c1C)C(c1ccc(Cl)cc1)=N[C@@H](CC(=O)Nc1ccc(OCCOCCOCCOCCNc3cccc4c3C(=O)N(C3CCC(=O)NC3=O)C4=O)cc1)c1nnc(C)n1-2 (stereo partly specified) [ARV-825] | 2.9 | 3.4 | 4.8 | 14.2 | 0 | 8.3 | 6.1 | 4.7 |
| CNC(=O)c1ccc2cc([C@@]3(O)CCn4cncc43)ccc2c1 [Orteronel] | 0 | 0 | 0 | 0 | 0 | 0 | 0 | 0 |
| CCC/C=C/C=C/C(=O)O[C@H]1/C(=C/C(=O)OC)C[C@H]2C[C@H]([C@@H](C)O)OC(=O)C[C@H](O)C[C@@H]3C[C@H](OC(C)=O)C(C)(C)[C@](O)(C[C@@H]4C/C(=C/C(=O)OC)C[C@H](/C=C/C(C)(C)[C@]1(O)O2)O4)O3 [Bryostatin 1] | 0 | 1.9 | 0.1 | 1.7 | 4.3 | 2 | 5.8 | 0 |
| Oc1ccc2c(c1)CC[C@H](c1ccccc1)[C@@H]2c1ccc(OCCN2CCCC2)cc1 [Lasofoxifene] | 0 | 0 | 0 | 0 | 0 | 0 | 0 | 0 |
| Nc1cccc2c1CN(C1CCC(=O)NC1=O)C2=O (stereo unspecified) [Lenalidomide] | 0 | 0 | 0 | 0 | 0 | 0 | 0 | 0 |
| Cc1cccc(-c2[nH]c(CNc3ccccc3F)nc2-c2ccc3ncnn3c2)n1 [TEW-7197] | 0 | 0 | 0 | 0 | 0 | 0 | 0 | 0.7 |
| Cc1cn(-c2cc(NC(=O)c3ccc(C)c(Nc4nccc(-c5cnccn5)n4)c3)cc(C(F)(F)F)c2)cn1 [Radotinib] | 0 | 0 | 8.6 | 0 | 0 | 0 | 2.6 | 5 |
| O=C1Cc2cc(C(=O)NC3C[C@H]4CC[C@@H](C3)N4S(=O)(=O)CC3CCN(CCCC(F)(F)F)CC3)c(Cl)cc2N1 (stereo partly specified) | 0 | 0.2 | 0.7 | 0.3 | 0 | 0 | 0 | 0 |
| Cc1sc2c(c1C)C(c1ccc(Cl)cc1)=N[C@@H](CC(=O)NCCCCNC(=O)COc1cccc3c1C(=O)N(C1CCC(=O)NC1=O)C3=O)c1nnc(C)n1-2 (stereo partly specified) [dBET1] | 0 | 3 | 7.1 | 9.1 | 0 | 10.3 | 4.6 | 3.5 |
| COc1cc(OC2CCN(C)CC2)ccc1Nc1ncc2c(n1)n(C1CCCC1)c(=O)n2C [AZ 3146] | 1.3 | 1.7 | 2.2 | 3.3 | 3.2 | 5.5 | 3 | 3.3 |
| Cc1cccc(-c2nn3c(c2-c2ccnc4ccc(C(N)=O)cc24)CCC3)n1 [Galunisertib] | 0 | 0 | 0 | 0 | 0 | 0 | 0 | 0 |
| NCC(=O)Nc1ccc(-n2nc(C(F)(F)F)cc2-c2ccc3c(ccc4ccccc43)c2)cc1 | 0 | 2.5 | 0 | 0 | 0 | 3.4 | 0.4 | 0.4 |

Reference: the supplement of paper PMC8633005
